Measurements reported in ChEMBL document CHEMBL5137115, “Insights into the Metabolomic Capacity of Podaxis and Isolation of Podaxisterols A-D, Ergosterol Derivatives Carrying Nitrosyl Cyanide-Derived Modifications” (J Nat Prod, 2022).
The source made the active and inactive calls.

Key:
Type in all cases: functional, organism-based
Staphylococcus aureus [1] = assay: Antimicrobial activity against Staphylococcus aureus 134/94 assessed as inhibition zone at 0.5 mg/ml by […]
Staphylococcus aureus [2] = assay: Antimicrobial activity against Staphylococcus aureus SG511 assessed as inhibition zone at 0.5 mg/ml by […]
Mycolicibacterium vaccae = assay: Antimicrobial activity against Mycobacterium vaccae 10670 assessed as inhibition zone at 0.5 mg/ml by […]
Enterococcus faecalis = assay: Antimicrobial activity against Enterococcus faecalis 1528 assessed as inhibition zone at 0.5 mg/ml by […]
Bacillus subtilis = assay: Antimicrobial activity against Bacillus subtilis 6633 assessed as inhibition zone at 0.5 mg/ml by […]

Measured: Activity

CC(C)[C@@H](C)/C=C/[C@@H](C)[C@H]1CC[C@H]2C3=CC=C4C[C@@H](O)CC[C@]4(C)[C@H]3CC[C@]12C
active: all assays above
